Article PMC3762585 (Chemical & pharmaceutical bulletin, 2012)
Where two headings read alike, the source gives them in different places.

Key:
[1] = test system: JMAR, MDA-1986, B16F10, SKMEL-28 and MRC-5 cells; assay: MTS viability; assay type: cell-based; details: for anti-proliferative activity (cytotoxic effect): tested with a concentration of 20 μM, all five cell lines; for IC50: read-out: IC50 values, range over the cells tested
[2] = test system: MDA-1986; assay: MTS viability; details: Homo sapiens, MDA1986, read-out: Cytotoxicity IC50 MDA-1986
[3] = test system: SKMEL-28; assay: MTS viability; details: Homo sapiens, SK-MEL-28, read-out: Cytotoxicity IC50 SKMEL-28
[4] = in vitro; details: human
[5] = test system: B16F10; assay: MTS viability; details: Mus musculus, B16-F10, read-out: Cytotoxicity IC50 B16F10
[6] = test system: JMAR; assay: MTS viability; details: Homo sapiens, read-out: Cytotoxicity IC50 JMAR
[7] = test system: MRC-5
[8] = test system: JMAR
[9] = test system: B16F10
[10] = test system: SKMEL-28
[11] = test system: MDA-1986

For “19-hydroxy viscosalactone B [Withalongolide P 2]”, the “anti-proliferative activity (cytotoxic effect)” value [1] was “inactive”.

In the case of `CC1=C(CO)C(=O)O[C@@H]([C@@H](C)[C@H]2CC[C@H]3[C@@H]4C[C@H]5O[C@]56[C@@H](O)C=CC(=O)[C@]6(C)[C@H]4CC[C@]23C)C1` [Withaferin A 6, withaferin A], the IC50 [2] is reported as 860 ± 250 nM, the IC50 [3] is reported as 3500 ± 150 nM and the IC50 [4] is reported as 320 ± 60 nM. It also gave an IC50 [1] of 150 to 12700 nM and an IC50 [5] of 270 ± 40 nM.

`CC1=C(C)C(=O)O[C@@H]([C@@H](C)[C@H]2CC[C@H]3[C@@H]4C[C@H]5O[C@]56[C@@H](O)C=CC(=O)[C@]6(CO)[C@H]4CC[C@]23C)C1` [Withalongolide B 5, withalongolide B] showed an IC50 [2] of 1700 ± 80 nM, an IC50 [3] of 3300 ± 480 nM and an IC50 [4] of 380 ± 30 nM. It also gave an IC50 [1] of 150 to 12700 nM, an IC50 [5] of 260 ± 70 nM and an IC50 [6] of 250 ± 140 nM.

With `CC1=C(CO)C(=O)O[C@@H]([C@@H](C)[C@H]2CC[C@H]3[C@@H]4C[C@H]5O[C@]56[C@@H](O)[C@@H](O)CC(=O)[C@]6(C)[C@H]4CC[C@]23C)C1` [viscosalactone B 3, viscosalactone B] the IC50 [2] was over 20000 nM, the IC50 [3] was over 20000 nM and the IC50 [4] was over 20000 nM. For the same compound, the “anti-proliferative activity (cytotoxic effect)” value [1] was “inactive”, the IC50 [5] was over 20000 nM and the IC50 [6] was over 20000 nM.

“Withalongolide O 4,7-Diacetate [Withalongolide O 4,7-diacetate 1a]” gave an IC50 [7] of 530 ± 120 nM, an IC50 [8] of 830 ± 140 nM and an IC50 [9] of 690 ± 140 nM. For the same compound, the IC50 [10] was 180 ± 30 nM and the IC50 [11] was 540 ± 70 nM.
